{"source": "patent US12031986B2", "about": "“Polypeptide for targeting recognition of immune cells and application thereof” (KEYANGLE LIFE TECHNOLOGY CO., LTD., priority 2019, dated 2024)", "key": {"[1]": {"tested_on": "cultured peritoneal macrophages and other cells released from enzyme-digested mesenterium", "assay": "Selective labeling of cultured peritoneal macrophages among other cells released from enzyme-digested mesenterium", "assay_type": "cell-based, mouse", "settings": "peritoneal cells and mesenteries trypsin-digested, cultured 3 days", "experimental": "Take 5 to 8-week-old Kunming mice, inject intraperitoneally with 5 mL of serum-free DMEM incomplete medium. After 1 hour, sacrifice the mice by cervical vertebra dislocation. Make an incision on the skin of abdominal cavity, pierce the abdominal wall muscle using the syringe, and extract the fluid in the abdominal cavity of the mice. Wash twice with 1×PBS, collect peritoneal cells by centrifugation. Also take the mesenteries of the Kunming mice and purge twice with 1×PBS in centrifuge tubes. Incubate the obtained peritoneal cells and mesenteries in 0.25% trypsin solution and digest for 30 minutes. Enrich the cells by centrifugation, and then culture for 3 days in a 96-well plate using F12/DMEM culture solution containing 10% FBS and 1% streptomycin-penicillin. Referring to Example 5, label with the EK24 fluorescent probe and Nucblue. Then the cells were observed under a fluorescence microscope (20×, light source 10%, exposure 200 ms, gain 5)."}, "[2]": {"tested_on": "mouse macrophage cell line RAW264.7", "assay": "In vitro fluorescence labeled staining of a mouse macrophage cell line", "assay_type": "cell-based", "settings": "10 μM, incubated 1 h", "experimental": "Culture the mouse macrophage cell line RAW264.7 in a 96-well plate, wash the wells once with 1×PBS buffer or a serum-free DMEM incomplete medium, remove the washing liquid, add EK24 solution of 10 μM which had been diluted with 100 μL of serum-free DMEM incomplete medium, and incubate in a cell culture incubator for 1 h. After that, wash the wells twice with 1× PBS buffer or the serum-free DMEM incomplete medium. Then, add DMEM complete medium containing 10% FBS and 1% streptomycin-penicillin, and double-stain the cells using nuclear dye Nucblue and observe under EVOS® FL Auto fluorescence microscope (Life Technologies, light source 10%, exposure 200 ms, gain 5)."}, "[3]": {"tested_on": "primary macrophages from rat peritoneal cavity", "assay": "In vitro fluorescent labeling of primary macrophages from rat peritoneal cavity", "assay_type": "cell-based", "settings": "SD rats, cells cultured more than 2 days", "experimental": "With the same process as in Example 9, extract cells from the abdominal cavity of 5 to 8 weeks old SD rats using 20 mL serum-free DMEM incomplete medium and culture the cells in a 96-well plate. After culturing for more than 2 days until the cells attached to the bottom firmly, a well was selected and added with EK24 fluorescent probe for incubation. Then the cells were observed under a fluorescence microscope (20×, light source 10%, exposure 200 ms, gain 5)."}, "[4]": {"tested_on": "mouse peritoneal macrophages", "assay": "In vivo fluorescent labeling of macrophages in a mouse abdominal cavity", "settings": "probe injected into abdominal cavity, cells extracted after 4 hours, fluorescence microscope", "experimental": "Dilute 300 μL of 50 μM AK9 fluorescent probe solution with serum-free DMEM incomplete medium to obtain 1 mL of solution, then inject into the abdominal cavities of 5-8 week old Kunming mice. After 4 hours, inject 5 mL of 1×PBS, and massage. After 10 minutes, sacrifice the mice by cervical vertebra dislocation. Cut the abdominal cavity skin of the mice, pierce the abdominal wall muscle by syringe, and extract the fluid in the abdominal cavity of the mice. Centrifuge the extracted peritoneal fluid at 1000 rpm for 5 min, wash twice with 1×PBS. Double-stain an appropriate number of cells with Alexa Fluor 488 anti-mouse F4/80 antibody (Biolegend). Add the stained cells to a 96-well plate and stain with a nuclear dye Nucblue (Invitrogen). Observe under EVOS FL Auto fluorescence microscope (Life Technologies, 20×, light source 50%, exposure 200 ms, gain 10) after the suspended cells were settled down at the bottom of the plate.\nTable 1 lists probes, which contain the polypeptide fragments from the C-terminal fragments of Triokinases/FMN cyclases of different species and were prepared by a similar process as described in Examples 1 and 2, and in vivo imaging results of mouse peritoneal macrophages using these probes."}, "[5]": {"tested_on": "monocyte precursors from New Zealand White Rabbit bone marrow mesenchyme", "assay": "In vitro fluorescent labeling of primary monocyte precursors of New Zealand White Rabbit", "assay_type": "cell-based", "settings": "cultured", "text": "With a similar process to Example 11, bone marrow monocyte precursors of New Zealand White Rabbit were taken and cultured, then labeled by using EK24 fluorescent probe and Nucblue. Then the cells were observed under a fluorescence microscope (20×, light source 10%, exposure 200 ms, gain 5)."}, "[6]": {"tested_on": "macrophages on mouse abdominal wall", "assay": "In vivo fluorescent labeling of macrophages on mouse abdominal wall", "settings": "injected with FITC anti-mouse CD68 antibody; abdominal wall muscle removed", "experimental": "Referring to Example 3, using the same drug injection process, inject EK24, and FITC anti-mouse CD68 antibody (Biolegend) which was diluted with PBS from 2 μL to 500 μL. Remove mouse abdominal wall muscle for Nucblue double-staining and then observing under a fluorescence microscope (20×, light source 50%, exposure 200 ms, gain 5)."}, "[7]": {"tested_on": "cultured macrophages isolated from mouse peritoneal cavity", "assay": "In vitro fluorescent labeling of cultured macrophages isolated from mouse peritoneal cavity", "assay_type": "cell-based", "settings": "10 μM EK24 premixed with F4/80 antibody, 1 h at 37 °C", "experimental": "Inject 5 mL of serum-free DMEM incomplete medium into the abdominal cavity of 5 to 8 weeks old mice, massage the abdominal cavity gently for 10 min, and sacrifice the mice by cervical vertebra dislocation. Extract the fluid from the abdominal cavity gently with a syringe, inject into a 5 mL centrifuge tube and centrifuge at 1000 rpm for 5 min, remove the supernatant, and resuspend the collected ex-vivo cells in DMEM/F12 medium containing 10% FBS, then add into a 96-well plate for culture. Generally, if cells are taken intraperitoneally for in vitro culture, macrophages would tend to adhere to the bottom of the well, and other cells would be washed off. The cells were cultured for more than 2 days until the cells attached to the bottom firmly. At this time, the cells remaining in the wells were basically macrophages. Select two wells, one as a control and the other as an experimental well. The cells of the control were nuclear stained with Nucblue. The experimental well was added with a premix of AlexaFluor®488 anti-mouse F4/80 antibody (Biolegend) and EK24 fluorescent probe, and then incubated for 1 h at 37° ° C. The premix contained 10 μM of EK24 solution and 2 μL of Alexa Fluor®488 anti-mouse F4/80 antibody diluted with 100 μL of serum-free DMEM incomplete medium. […] The cells were observed under a fluorescence microscope (20× objective lens, light source 10%, exposure 200 ms, gain 5)."}, "[8]": {"tested_on": "mouse alveolar macrophages", "assay": "In vivo fluorescent labeling of mouse pulmonary macrophages after spraying through the trachea", "settings": "sprayed into the lungs through the trachea; whole lungs observed", "text": "In yet another aspect of the present disclosure, it provides a method for convenient, oral and non-invasive in situ imaging or targeted drug administration for pulmonary immune cells. After spraying into the trachea of a mouse, the polypeptide or probe of the present disclosure can be diffused along the trachea in the living body, automatically target and aggregate in alveolar macrophages, and thus allow real-time and in situ imaging or targeted drug delivery to pulmonary and alveolar macrophages. The imaging may be maintained for more than 24 hours. The experiments of the present disclosure confirm that the probe described above can diffuse to lungs through mouth inhalation, and recognize macrophages therein, which is consistent with CD11c antibody recognizing alveolar macrophages.\nSpray 100 μL of 50 μM EK24-drug into the lungs of 4- to 8-week-old mice through the trachea thereof, and after 18 hours, dilute 5 μL of Alexa Fluor®488 anti-mouse CD11c antibody (Biolegend) to 100 μL and then spray into the lung for 1.5 h. Dissect the mice, and take the whole lungs for observing under a fluorescence microscope (20×, light source 50%, exposure 200 ms, gain 5)."}}, "note": "“Also recorded” adds a separate entry of the source. No end group written: not given here.", "data": [{"substance": "EQPDPGAVAAAAILRAILEVLQS-Y (EQPDPGAVAAAAILRAILEVLQSY; also: reporter type not given here; listed as Homo sapiens) [EK24, Y = reporter or cysteine/lysine + reporter]", "values": [{"measurement": "staining of macrophages in mixed culture", "setting": "[1]", "value": "only stains macrophages"}, {"measurement": "staining of non-macrophages in mixed culture", "setting": "[1]", "value": "not stain non-macrophages"}, {"measurement": "fluorescent labeling of RAW264.7", "setting": "[2]", "value": "can be labeled"}, {"measurement": "labeling of in vitro cultured primary macrophages from rat peritoneal cavity", "setting": "[3]", "value": "can effectively label"}, {"measurement": "in vivo labeling / recognition of mouse peritoneal macrophages by the fluorescent probe", "setting": "[4]", "value": "can effectively recognize macrophages in vivo; also recorded: can be labeled"}, {"measurement": "labeling of New Zealand White Rabbit bone marrow monocyte precursors", "setting": "[5]", "value": "capable of labeling"}, {"measurement": "labeling of macrophages on mouse abdominal wall", "setting": "[6]", "value": "can be labeled"}, {"measurement": "labeling of other cells of mouse abdominal wall", "setting": "[6]", "value": "cannot be labeled"}, {"measurement": "co-localization of probe label and F4/80 antibody label", "setting": "[7]", "value": "co-localized on the same cells"}, {"measurement": "recognition of mouse alveolar / pulmonary macrophages", "setting": "[8]", "value": "recognize the same cells in mouse alveoli"}]}]}
